Assay results published in PMC2747507 (The Pediatric infectious disease journal, 2009).
Like-named read-outs stand apart in the source and are kept apart here. Numbered stars: 1 amine (or outer) side, 2 acyl side, 3 side chain; on linkers, the order of the positions; unused ones are H or OH. Bridge positions count the residues as written; N and C are the ends. Square brackets hold non-standard residues; d marks the D form. Peptide text beside a SMILES is read from it. * marks the point of attachment. hTyr(3S-OH,4S-OH,3'-OSO3H) = N[C@H](C(=O)O)[C@H](O)[C@@H](O)c1ccc(O)c(OS(=O)(=O)O)c1; Orn(4R-OH,5R-OH) = O=C([C@H](C[C@@H](O)[C@@H](O)N[*:3])N[*:1])[*:2]; Pro(3S-OH,4S-Me) = C[C@H]1CN[C@H](C(=O)O)[C@H]1O; X1 = CCCCCOc1ccc(-c2cc(-c3ccc(C(=O)*)cc3)no2)cc1; Gln(3R-OH) = NC(=O)C[C@@H](O)[C@H](N)C(=O)O; Hyp = O=C(O)[C@@H]1C[C@@H](O)CN1

Assays:
[1] = cited from earlier work
[2] = test system: central nervous system infections; conditions: neutropenic rabbits; cited from earlier work
[3] = format: in vivo, human (preterm neonates)
[4] = cited from earlier work; remark: listed apart in the source
[5] = format: in vivo, human (preterm neonates); conditions: 15 mg/kg/day IV
[6] = 12 neonates, 15 mg/kg/day IV for 5 days, not felt related to micafungin
[7] = neonates <1000 grams (n=7), mean (SD), SD
[8] = neonates ≥1000 grams (n=5), mean (SD), SD

CCCCCOc1ccc(-c2cc(-c3ccc(C(=O)N[C@H]4C[C@@H](O)[C@@H](O)NC(=O)[C@@H]5[C@@H](O)[C@@H](C)CN5C(=O)[C@H]([C@H](O)CC(N)=O)NC(=O)[C@H]([C@H](O)[C@@H](O)c5ccc(O)c(OS(=O)(=O)O)c5)NC(=O)[C@@H]5C[C@@H](O)CN5C(=O)[C@H]([C@@H](C)O)NC4=O)cc3)no2)cc1 [micafungin] (X1-[Orn(4R-OH,5R-OH)]T[Hyp][hTyr(3S-OH,4S-OH,3'-OSO3H)][Gln(3R-OH)][Pro(3S-OH,4S-Me)]; lactam 1-C)
mean CL ([1]; 18 neonates > 1000 g, single IV dose 0.75, 1.5 or 3.0 mg/kg): 0.65 mL/min/kg
CL ([1]; neonates < 1000g, single dose 0.75 mg/kg, data from 4 patients): 1.32 mL/min/kg
Vdss in neonates from the previous study ([1]; single-dose study in neonates): 0.44 L/kg
treatment of central nervous system infections [2]: Successful treatment
reported AE: hypochloremia [3, 6]: 33%
reported AE: hypokalemia [3, 6]: 25%
reported AE: hyponatremia [3, 6]: 42%
reported AE: monocytosis [3, 6]: 25%
renal toxicity and changes in hematology parameters ([3]; 12 neonates, baseline vs end of therapy): No evidence of renal toxicity or significant changes in hematology parameters
deaths ([3]; 12 neonates, 3 days after completing the course of micafungin): One 540 g neonate died on day of life 11 from necrotizing enterocolitis
Potassium, after 5th dose ([3]; median (IQR), prior to 1st dose 4.0 (3.4, 4.4), P 0.03): 4.6 mmol/L
Vdss ([4]; adult studies): 0.26 L/kg
average AUC ([4]; adults, 150 mg dose): 166.7 µg·h/mL
CL ([4]; adults): 0.16 mL/min/kg
CL ([4]; children ages 2–8 years): 0.38 mL/min/kg
CL ([4]; children ages 9–17 years): 0.28 mL/min/kg
highest observed AUC0–24 ([5]; preterm neonates, maximum of n=12): 555.6 µg·h/mL
Vdss [5, 7]: 1.637(0.657) L/kg
Vdβ [5, 7]: 0.636(0.370) L/kg
Vdss [5, 8]: 1.344(0.141) L/kg
Vdβ [5, 8]: 0.581(0.106) L/kg
Vdβ, volume of distribution in the elimination phase ([5]; whole cohort n=12, mean (SD), SD): 0.613(0.282) L/kg
Cmax ([5]; whole cohort n=12, obtained directly from the data, mean (SD), SD): 38.4(8.8) ug/mL
Vdss ([5]; whole cohort n=12, weight-normalized, mean (SD), SD): 1.515(0.516) L/kg
